Assay results as given in patent US8883782B2, “Spiro-tetracyclic ring compounds as beta-secretase modulators and methods of use” (Amgen Inc., priority 2010, dated 2014).
pIC50: −log10 of the molar value. Like-named read-outs stand apart in the source and are kept apart here.

Key:
[1] = target: Beta Secretase enzyme (BACE) (Homo sapiens, UniProt P56817); experiment: In vitro enzymatic BACE FRET (fluorescence resonance energy transfer) assay; assay type: biochemical; settings: average IC50, enzyme assay; read-out: BACE 1 FRET assay
Outline: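 Run in 0.05 M acetate pH 4.2 with 10% DMSO final and 100 uM genapol; started by adding 50 nM FRET peptide substrate (fluorophore and quencher flanking the cleavage site), incubated one hour, then stopped with Tris to neutral pH before reading fluorescence.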

[2] = system: Aβ40 in conditioned medium of cells stably expressing Amyloid Precursor Protein (APP); experiment: In vitro BACE cell-based assay (Aβ40 in conditioned medium, sandwich ELISA); settings: Homo sapiens, read-out: HEK cell assay
Outline: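 Step two: 10-point compound titration added, starting 100 μM or 10 μM, 0.1% DMSO. Step three: medium Aβ40 measured by ELISA, capture 3 h and detection 2 h at 4° C, TRF read.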

Sequence of Beta Secretase enzyme (BACE) (P56817 46-501, species assumed): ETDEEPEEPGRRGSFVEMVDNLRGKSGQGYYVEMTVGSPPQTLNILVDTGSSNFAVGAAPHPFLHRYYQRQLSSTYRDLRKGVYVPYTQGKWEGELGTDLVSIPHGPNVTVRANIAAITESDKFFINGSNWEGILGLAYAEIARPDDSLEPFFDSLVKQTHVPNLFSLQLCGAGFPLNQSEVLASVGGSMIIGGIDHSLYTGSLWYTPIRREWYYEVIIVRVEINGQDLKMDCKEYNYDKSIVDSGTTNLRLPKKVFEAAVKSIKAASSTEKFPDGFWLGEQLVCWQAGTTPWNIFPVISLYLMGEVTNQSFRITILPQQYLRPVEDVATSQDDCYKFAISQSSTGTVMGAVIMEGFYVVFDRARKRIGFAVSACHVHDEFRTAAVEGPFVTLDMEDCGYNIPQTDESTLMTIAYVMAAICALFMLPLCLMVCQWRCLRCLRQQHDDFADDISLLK

Row | pIC50 [1] | pIC50 ([2]; HEK293, average IC50) | SMILES | pIC50 ([2]; HEK293, average IC50, HEK cell assay)
1 | 8.25 | 7.36 | CC1(C#Cc2cnc3c(c2)[C@]2(COC(N)=N2)c2cc(-c4ccc(F)c(C#N)c4)ccc2O3)COC1 [Example 787, 5-((5S)-2′-amino-3-((3-methyl-3-oxetanyl)ethynyl)spiro[chromeno[2,3-b]pyridine-5,4′-[1,3]oxazol]-7-yl)-2-fluorobenzonitrile] | –
2 | 8.30 | 7.23 | NC1=N[C@@]2(CS1)c1cc(-c3cnccc3F)ccc1Oc1ncc(-c3cccnc3F)cc12 [Example 788, (5S)-3-(2-fluoro-3-pyridinyl)-7-(4-fluoro-3-pyridinyl)spiro[chromeno[2,3-b]pyridine-5,4′-[1,3]thiazol]-2′-amine] | –
3 | 8.66 | 8.05 | CC#Cc1cncc(-c2ccc3c(c2)[C@@]2(CSC(N)=N2)c2cc(-c4ncccn4)cnc2O3)c1 [Example 789, (5S)-7-(5-(1-propyn-1-yl)-3-pyridinyl)-3-(2-pyrimidinyl)spiro[chromeno[2,3-b]pyridine-5,4′-[1,3]thiazol]-2′-amine] | –
4 | 7.84 | 7.01 | N#Cc1cccc(-c2ccc3c(c2)[C@@]2(CSC(N)=N2)c2cc(C4CCOCC4)cnc2O3)c1F [Example 790, 3-((5S)-2′-amino-3-(tetrahydro-2H-pyran-4-yl)spiro[chromeno[2,3-b]pyridine-5,4′-[1,3]thiazol]-7-yl)-2-fluorobenzonitrile] | –
5 | 10.00 | 8.00 | NC1=N[C@@]2(CS1)c1cc(-c3cccnc3F)ccc1Oc1c(F)cc(C3=CCOCC3)cc12 [Example 791, (4S)-2′-(3,6-dihydro-2H-pyran-4-yl)-4′-fluoro-7′-(2-fluoro-3-pyridinyl)spiro[1,3-thiazole-4,9′-xanthen]-2-amine] | –
6 | 8.29 | 7.52 | NC1=N[C@@]2(CO1)c1cc(-c3cccnc3)ccc1Oc1c(F)cc(N3CCCC3=O)cc12 [Example 792, 1-((4S)-2-amino-4′-fluoro-7′-(3-pyridinyl)spiro[1,3-oxazole-4,9′-xanthen]-2′-yl)-2-pyrrolidinone] | –
7 | 6.75 | 5.32 | CC1(COc2cc(F)c3c(c2)[C@@]2(CSC(N)=N2)c2cc(-c4cccnc4F)ccc2O3)COC1 [Example 793, (4R)-4′-fluoro-7′-(2-fluoro-3-pyridinyl)-2′-((3-methyl-3-oxetanyl)methoxy)spiro[1,3-thiazole-4,9′-xanthen]-2-amine] | –
8 | 9.70 | 8.22 | CC1(COc2cc(F)c3c(c2)[C@]2(CSC(N)=N2)c2cc(-c4cccnc4F)ccc2O3)COC1 [Example 794, (4S)-4′-fluoro-7′-(2-fluoro-3-pyridinyl)-2′-((3-methyl-3-oxetanyl)methoxy)spiro[1,3-thiazole-4,9′-xanthen]-2-amine] | –
9 | 9.30 | 8.00 | NC1=N[C@@]2(CS1)c1cc(-c3cccnc3)ccc1Oc1c(F)cc(C3=CCCOC3)cc12 [Example 795, (4S)-2′-(5,6-dihydro-2H-pyran-3-yl)-4′-fluoro-7′-(3-pyridinyl)spiro[1,3-thiazole-4,9′-xanthen]-2-amine] | –
10 | 9.30 | 8.10 | NC1=N[C@@]2(CS1)c1cc(-c3cccnc3)ccc1Oc1c(F)cc(C3=CCOCC3)cc12 [Example 796, (4S)-2′-(3,6-dihydro-2H-pyran-4-yl)-4′-fluoro-7′-(3-pyridinyl)spiro[1,3-thiazole-4,9′-xanthen]-2-amine] | –
11 | 9.22 | 8.15 | CC1(C)CC(=O)N(c2cc(F)c3c(c2)[C@]2(COC(N)=N2)c2cc(-c4cccnc4F)ccc2O3)C1 [Example 797, 1-((4S)-2-amino-4′-fluoro-7′-(2-fluoro-3-pyridinyl)spiro[1,3-oxazole-4,9′-xanthen]-2′-yl)-4,4-dimethyl-2-pyrrolidinone] | –
12 | 8.85 | 8.10 | CC1(C)CC(=O)N(c2cc(F)c3c(c2)[C@]2(COC(N)=N2)c2cc(-c4cccnc4)ccc2O3)C1 [Example 798, 1-((4S)-2-amino-4′-fluoro-7′-(3-pyridinyl)spiro[1,3-oxazole-4,9′-xanthen]-2′-yl)-4,4-dimethyl-2-pyrrolidinone] | –
13 | 8.82 | 7.74 | NC1=N[C@@]2(CS1)c1cc(-c3cccnc3)ccc1Oc1c(F)cc(N3CCOCC3)cc12 [Example 799, (4S)-4′-fluoro-2′-(4-morpholinyl)-7′-(3-pyridinyl)spiro[1,3-thiazole-4,9′-xanthen]-2-amine] | –
14 | 9.40 | 7.70 | CC(C)(C#N)COc1cc(F)c2c(c1)[C@]1(CSC(N)=N1)c1cc(-c3cccnc3F)ccc1O2 [Example 800, 3-(((4S)-2-amino-4′-fluoro-7′-(2-fluoro-3-pyridinyl)spiro[1,3-thiazole-4,9′-xanthen]-2′-yl)oxy)-2,2-dimethylpropanenitrile] | –
15 | 8.66 | 6.77 | NC1=N[C@@]2(CO1)c1cc(-c3cccnc3F)ccc1Oc1c(F)cc(C3=CC(=O)OC3)cc12 [Example 801, 4-((4S)-2-amino-4′-fluoro-7′-(2-fluoro-3-pyridinyl)spiro[1,3-oxazole-4,9′-xanthen]-2′-yl)-2(5H)-furanone] | –
16 | 9.10 | 7.48 | CC1(C)CC(c2cc(F)c3c(c2)[C@]2(COC(N)=N2)c2cc(-c4cccnc4F)ccc2O3)=CC(=O)O1 [Example 804, 4-((4S)-2-amino-4′-fluoro-7′-(2-fluoro-3-pyridinyl)spiro[1,3-oxazole-4,9′-xanthen]-2′-yl)-6,6-dimethyl-5,6-dihydro-2H-pyran-2-one] | –
17 | 9.70 | 8.52 | NC1=N[C@@]2(CO1)c1cc(-c3cccnc3F)ccc1Oc1c(F)cc(C3=C(Cl)COCC3)cc12 [Example 805, (4S)-2′-(5-chloro-3,6-dihydro-2H-pyran-4-yl)-4′-fluoro-7′-(2-fluoro-3-pyridinyl)spiro[1,3-oxazole-4,9′-xanthen]-2-amine] | –
18 | 8.52 | 7.03 | Cc1ncncc1-c1ccc2c(c1)[C@@]1(COC(N)=N1)c1cc(C3=CCOCC3)ncc1O2 [Example 808, (5S)-3-(3,6-dihydro-2H-pyran-4-yl)-7-(4-methyl-5-pyrimidinyl)spiro[chromeno[2,3-c]pyridine-5,4′-[1,3]oxazol]-2′-amine] | –
19 | 8.08 | 6.29 | Cc1ncncc1-c1ccc2c(c1)[C@@]1(COC(N)=N1)c1cc(-c3ccnc(F)c3)ncc1O2 [Example 809, (5S)-3-(2-fluoro-4-pyridinyl)-7-(4-methyl-5-pyrimidinyl)spiro[chromeno[2,3-c]pyridine-5,4′-[1,3]oxazol]-2′-amine] | –
20 | 6.22 | ≤ 5.00 | CC1(C#Cc2cncc(-c3ccc4c(c3)[C@@]3(COC(N)=N3)c3cc(Cl)ncc3O4)c2)COC1 [Example 810, (5S)-3-chloro-7-(5-((3-methyl-3-oxetanyl)ethynyl)-3-pyridinyl)spiro[chromeno[2,3-c]pyridine-5,4′-[1,3]oxazol]-2′-amine] | –
21 | 8.26 | 6.34 | CC1(C#Cc2cncc(-c3ccc4c(c3)[C@@]3(COC(N)=N3)c3cc(-c5ccnc(F)c5)ncc3O4)c2)COC1 [Example 812, (5S)-3-(2-fluoro-4-pyridinyl)-7-(5-((3-methyl-3-oxetanyl)ethynyl)-3-pyridinyl)spiro[chromeno[2,3-c]pyridine-5,4′-[1,3]oxazol]-2′-amine] | –
22 | 8.60 | 7.28 | CC1(C#Cc2cncc(-c3ccc4c(c3)[C@@]3(COC(N)=N3)c3cc(C5=CCCOC5)ncc3O4)c2)COC1 [Example 813, (5S)-3-(5,6-dihydro-2H-pyran-3-yl)-7-(5-((3-methyl-3-oxetanyl)ethynyl)-3-pyridinyl)spiro[chromeno[2,3-c]pyridine-5,4′-[1,3]oxazol]-2′-amine] | –
23 | 8.72 | 6.16 | NC1=N[C@@]2(CO1)c1cc(-c3cncc(C#CC4CC4)c3)ccc1Oc1cnc(-c3ccnc(F)c3)cc12 [Example 815, (5S)-7-(5-(cyclopropylethynyl)-3-pyridinyl)-3-(2-fluoro-4-pyridinyl)spiro[chromeno[2,3-c]pyridine-5,4′-[1,3]oxazol]-2′-amine] | –
24 | 7.87 | 5.83 | CC(C)(O)C#Cc1cncc(-c2ccc3c(c2)[C@@]2(COC(N)=N2)c2cc(-c4ccnc(F)c4)ncc2O3)c1 [Example 817, 4-(5-((5S)-2′-amino-3-(2-fluoro-4-pyridinyl)spiro[chromeno[2,3-c]pyridine-5,4′-[1,3]oxazol]-7-yl)-3-pyridinyl)-2-methyl-3-butyn-2-ol] | –
25 | 8.31 | 6.82 | CC(C)(O)C#Cc1cncc(-c2ccc3c(c2)[C@@]2(COC(N)=N2)c2cc(C4=CCOCC4)ncc2O3)c1 [Example 818, 4-(5-((5S)-2′-amino-3-(3,6-dihydro-2H-pyran-4-yl)spiro[chromeno[2,3-c]pyridine-5,4′-[1,3]oxazol]-7-yl)-3-pyridinyl)-2-methyl-3-butyn-2-ol] | –
26 | 8.28 | 6.62 | CC(C)(O)C#Cc1cncc(-c2ccc3c(c2)[C@@]2(COC(N)=N2)c2cc(C4=CCCOC4)ncc2O3)c1 [Example 819, 4-(5-((5S)-2′-amino-3-(5,6-dihydro-2H-pyran-3-yl)spiro[chromeno[2,3-c]pyridine-5,4′-[1,3]oxazol]-7-yl)-3-pyridinyl)-2-methyl-3-butyn-2-ol] | –
27 | 8.96 | 7.68 | COc1cc(F)c2c(c1)[C@]1(COC(N)=N1)c1cc(-c3cncc(C#CCO)c3)ccc1O2 [Example 820, 3-(5-((4S)-2-amino-5′-fluoro-7′-methoxyspiro[1,3-oxazole-4,9′-xanthen]-2′-yl)-3-pyridinyl)-2-propyn-1-ol] | –

Row | SMILES | pIC50 [1] | pIC50 ([2]; HEK293, average IC50) | pIC50 ([2]; HEK293, average IC50, HEK cell assay)
28 | NC1=N[C@@]2(CO1)c1cc(-c3cccnc3F)ccc1Oc1c2cc(-c2ccccc2)nc1F [Example 806, (S)-1-fluoro-7-(2-fluoropyridin-3-yl)-3-phenyl-5′H-spiro[chromeno[2,3-c]pyridine-5,4′-oxazol]-2′-amine] | 8.82 | – | 8.30
